From US20060069132A1, “Azolecarboxamide herbicides” (priority 2004, published 2006)

Tests used:
Assay in all cases: Test A pre-/postemergence herbicide test
velvetleaf = assay type: in vivo, Abutilon theophrasti
From the text: (§1) Seeds of plant species selected from barnyardgrass (Echinochloa crus-galli (L.) Beauv.), downy bromegrass (Bromus tectorum L.), large crabgrass (Digitaria sanguinalis (L.) Scop.), giant foxtail (Setaria faberi Herrm.), morningglory (Ipomoea spp.), redroot pigweed (Amaranthus retroflexus L.) and velvetleaf (Abutilon theophrasti Medik.) were planted into a sandy loam soil and treated preemergence with a directed soil spray using test chemicals formulated in a non-phytotoxic solvent mixture which included a surfactant. At the same time plants selected from these species were also treated postemergence by spraying to runoff with test chemicals formulated.
(§2) Plants ranged in height from 2 to 10 cm and were in the one- to two-leaf stage for the postemergence treatment. Treated plants and untreated controls were maintained in a greenhouse for approximately ten days, after which time all treated plants were compared to untreated controls and visually evaluated for injury. Plant response ratings, summarized in Table A, are based on a 0 to 100 scale where 0 is no effect and 100 is complete control. A dash (-) response means no test results.

large crabgrass = assay type: in vivo, Digitaria sanguinalis
From the text: as §1, §2

redroot pigweed = assay type: in vivo, Amaranthus retroflexus
From the text: as §1, §2

barnyardgrass = assay type: in vivo, Echinochloa crus-galli
From the text: as §1, §2

giant foxtail = assay type: in vivo, Setaria faberi
From the text: as §1, §2

morningglory = assay type: in vivo, Ipomoea spp.
From the text: as §1, §2

[1] = Postemergence, 2000 g ai/ha, 0 to 100 scale, 0 no effect, 100 complete control
[2] = Preemergence, 500 g ai/ha, visual rating, 0 to 100 scale (0 no effect, 100 complete control)
[3] = Preemergence, 2000 g ai/ha, 0 to 100 scale, 0 no effect, 100 complete control
[4] = Postemergence, 500 g ai/ha, 0 to 100 scale, 0 no effect, 100 complete control
[5] = Preemergence, 2000 g ai/ha, visual rating, 0 to 100 scale (0 no effect, 100 complete control)
[6] = Postemergence, 125 g ai/ha, 0 to 100 scale, 0 no effect, 100 complete control
[7] = preemergence, 125 g ai/ha, visual injury, 0 to 100 scale (0 no effect, 100 complete control)
[8] = preemergence, 500 g ai/ha, visual injury, 0 to 100 scale (0 no effect, 100 complete control)

With `Cn1nc(C(C)(C)C)cc1C(=O)Nc1cccc2c1CNC2=O` [Compound 53] the “Plant response rating, Velvetleaf” value (velvetleaf; [1]) was 0, the “Velvetleaf plant response rating” value (velvetleaf; [2]) was 0 and the “Velvetleaf plant response rating” value (velvetleaf; [3]) was 0. The “Plant response rating, Crabgrass, Large” value (large crabgrass; [4]) was 5, the “Plant response rating, Crabgrass, Large” value (large crabgrass; [1]) was 0 and the “Crabgrass, Large plant response rating” value (large crabgrass; [2]) was 0. The “Crabgrass, Large plant response rating” value (large crabgrass; [3]) was 40, the “Plant response rating, Pigweed” value (redroot pigweed; [4]) was 0 and the “Plant response rating, Pigweed” value (redroot pigweed; [1]) was 0. The “Pigweed plant response rating” value (redroot pigweed; [2]) was 30, the “Pigweed plant response rating” value (redroot pigweed; [3]) was 40 and the “Plant response rating, Barnyardgrass” value (barnyardgrass; [4]) was 0. For the same compound, the “Plant response rating, Barnyardgrass” value (barnyardgrass; [1]) was 0, the “Barnyardgrass plant response rating” value (barnyardgrass; [2]) was 0 and the “Barnyardgrass plant response rating” value (barnyardgrass; [3]) was 10. The “Plant response rating, Foxtail, Giant” value (giant foxtail; [4]) was 0, the “Plant response rating, Foxtail, Giant” value (giant foxtail; [1]) was 0 and the “Foxtail, Giant plant response rating” value (giant foxtail; [2]) was 0. The “Foxtail, Giant plant response rating” value (giant foxtail; [3]) was 0, the “Plant response rating, Morningglory” value (morningglory; [4]) was 0 and the “Plant response rating, Morningglory” value (morningglory; [1]) was 0. The “Morningglory plant response rating” value (morningglory; [2]) was 0 and the “Morningglory plant response rating” value (morningglory; [3]) was 0.
In the case of `CC(=NO)c1cccc(NC(=O)c2cc(C(F)(F)F)nn2C)c1` [Compound 103], the “Velvetleaf plant response rating” value (velvetleaf; [4]) is reported as 10, the “Plant response rating, Velvetleaf” value (velvetleaf; [1]) is reported as 45 and the “Velvetleaf plant response rating” value (velvetleaf; [2]) is reported as 20. For the same compound, the “Velvetleaf plant response rating” value (velvetleaf; [5]) was 20, the “Crabgrass, Large plant response rating” value (large crabgrass; [4]) was 15 and the “Plant response rating, Crabgrass, Large” value (large crabgrass; [1]) was 30. The “Crabgrass, Large plant response rating” value (large crabgrass; [2]) was 35, the “Crabgrass, Large plant response rating” value (large crabgrass; [5]) was 55 and the “Pigweed plant response rating” value (redroot pigweed; [4]) was 85. For the same compound, the “Plant response rating, Pigweed” value (redroot pigweed; [1]) was 100, the “Pigweed plant response rating” value (redroot pigweed; [2]) was 80 and the “Pigweed plant response rating” value (redroot pigweed; [5]) was 95. The “Barnyardgrass plant response rating” value (barnyardgrass; [4]) was 45, the “Plant response rating, Barnyardgrass” value (barnyardgrass; [1]) was 75 and the “Barnyardgrass plant response rating” value (barnyardgrass; [2]) was 55. The “Barnyardgrass plant response rating” value (barnyardgrass; [5]) was 85, the “Foxtail, Giant plant response rating” value (giant foxtail; [4]) was 10 and the “Plant response rating, Foxtail, Giant” value (giant foxtail; [1]) was 30. The “Foxtail, Giant plant response rating” value (giant foxtail; [2]) was 0, the “Foxtail, Giant plant response rating” value (giant foxtail; [5]) was 15 and the “Morningglory plant response rating” value (morningglory; [4]) was 25. For the same compound, the “Plant response rating, Morningglory” value (morningglory; [1]) was 35, the “Morningglory plant response rating” value (morningglory; [2]) was 0 and the “Morningglory plant response rating” value (morningglory; [5]) was 10.
In the case of `CCNC(=O)c1ccc(F)c(NC(=O)c2nc(C(C)(C)C)nn2CC)c1` [Compound 447], the “Velvetleaf plant response rating” value (velvetleaf; [6]) is reported as 10, the “Velvetleaf plant response rating” value (velvetleaf; [4]) is reported as 30 and the “Velvetleaf plant response rating” value (velvetleaf; [7]) is reported as 0. For the same compound, the “Velvetleaf plant response rating” value (velvetleaf; [8]) was 0, the “Crabgrass, Large plant response rating” value (large crabgrass; [6]) was 10 and the “Crabgrass, Large plant response rating” value (large crabgrass; [4]) was 25. The “Crabgrass, Large plant response rating” value (large crabgrass; [7]) was 0, the “Crabgrass, Large plant response rating” value (large crabgrass; [8]) was 35 and the “Pigweed plant response rating” value (redroot pigweed; [6]) was 40. For the same compound, the “Pigweed plant response rating” value (redroot pigweed; [4]) was 50, the “Pigweed plant response rating” value (redroot pigweed; [7]) was 10 and the “Pigweed plant response rating” value (redroot pigweed; [8]) was 50. The “Barnyardgrass plant response rating” value (barnyardgrass; [6]) was 25, the “Barnyardgrass plant response rating” value (barnyardgrass; [4]) was 70 and the “Barnyardgrass plant response rating” value (barnyardgrass; [7]) was 20. For the same compound, the “Barnyardgrass plant response rating” value (barnyardgrass; [8]) was 60, the “Foxtail, Giant plant response rating” value (giant foxtail; [6]) was 10 and the “Foxtail, Giant plant response rating” value (giant foxtail; [4]) was 40. The “Foxtail, Giant plant response rating” value (giant foxtail; [7]) was 10, the “Foxtail, Giant plant response rating” value (giant foxtail; [8]) was 45 and the “Morningglory plant response rating” value (morningglory; [6]) was 5. For the same compound, the “Morningglory plant response rating” value (morningglory; [4]) was 10, the “Morningglory plant response rating” value (morningglory; [7]) was 0 and the “Morningglory plant response rating” value (morningglory; [8]) was 0.
